Experimental data from paper PMC11881437 (Molecular Medicine, 2025).

What was measured:
[1] = system: HCT116 cells; experiment: Atomic force microscopy of cell morphology; assay type: cell-based, human; details: HCT116, 24 h; 26 µM Orientin, 13 µM 5FU, 14 µM Orientin + 7 µM 5FU
Experimental: The material properties and dimensions of the probe used in contact mode were as follows: resonance frequency of 13 kHz (± 4 kHz), force constant of 0.2 N/m (± 0.14 N/m), cantilever length of 450 µm (± 10 µm), cantilever width of 38 µm (± 5 µm), cantilever thickness of 2 µm (± 1 µm), tip radius of 5 nm (± 1 nm), and tip height of 17 µm (± 2 µm). The scan area depends on the size of the cancer cell and ranged from 20 × 10–30 × 20 µm^2. Image processing and data analysis were performed using Picoview 1.10 software.

[2] = system: OCT4, SOX2 and NANOG; experiment: Real time PCR of stemness factors in sorted CD44+/CD133+ cells; assay type: cell-based, human; details: 24 h
Description: CD44^+/CD133^+ cells were isolated using MACS LS column (Miltenyi Biotec, USA) after leveled with CD44 and CD133 antibody conjugated with microbeads (Miltenyi Biotec, USA) by following manufacture’s protocol and subjected to further analysis. Cells expressing both CD44 and CD133 were isolated using magnetic cell sorter (MACS) (Guerriero et al. [2017]).
Total RNA was extracted from sorted CD44^+/CD133^+ cell population using TRIZOL (Thermo Fisher Scientific, USA) as described in manufacturer’s protocol. cDNAs were synthesized from RNA templates by using cDNA isolation kit (Bio-Rad, USA) and target genes like OCT4, SOX2 and NANOG were amplified by using real time PCR kit (Bio-Rad, USA) following manufacturer’s instructions by Roche LightCycler® 96 System (Switzerland). Glyceraldehyde-3-phosphate dehydrogenase (GAPDH) gene expression was used to normalize the expression of the target genes.

[3] = system: CT26 cell induced solid tumor; experiment: CT26 syngeneic colorectal tumor model; assay type: in vivo, BALB/c mice; details: for tumor volume: 10 days, Orientin 5 mg/kg b.w/day i.v., 5FU 5 mg/kg b.w i.v. alternate day; for tumor volume / survival (Kaplan Meier): vs control; for tumor tissue histopathology: H&E; for number of blood vessels in tumor tissue: H&E sections; for CD44+/CD133+ cells in tumor tissue / HIF1α and VEGFA expression in tumor: immunofluorescence; for survival (Kaplan Meier): tumor bearing mice
Experimental: To set up therapeutic in vivo model, CT26 cells (2 × 10^6 cells/animal), syngeneic to BALB/c mice were injected subcutaneously to the right hind limb of the each animal. Palpable tumor was formed after 10 days. […] Six mice from each group were sacrificed on day 11 and the others were left for performing survivability assay using Kaplan–Meier method (Hajra et al. [2018a]).
Various organs and solid tumors collected after sacrificing the mice were embedded into paraffin after 10% neutral buffered formalin fixation. 4 μm sections were prepared and used for histopathological study. Standard Hematoxylin and Eosin (H&E) staining protocol was used and sections were visualized under light microscope (DM 1000, Leica, Germany) (Hajra et al. [2018a]).
Immunofluorescence assay was carried out as described previously (Shimizu et al. [2023]). Tissue sections were blocked with 3% BSA and incubated with primary antibodies like HIF1α, VEGFA, CD44 (Thermo Fisher Scientific, USA) and CD133 (Abcam, USA) at room temperature for 2 h. Alexa fluor 488 and Alexa fluor 594 tagged secondary (Thermo Fisher Scientific, USA) antibodies were added to all the tissue sections for 1 h followed by DAPI staining and images were visualized under fluorescence microscope (Olympus BX53, Japan).

[4] = Serum cytotoxicity markers (ALT, AST, ALP, BUN, creatinine); assay type: in vivo; details: BALB/c mice, 10 days, mean ± SD, n = 6
Experimental: To determine the toxicity of only Orientin treatment in various doses, the mice were divided into five groups. Each group contained six animals (n = 6). Each animal of the vehicle control group (VC) was left untreated, while, mice of other four groups were administered Orientin intravenously with 1 mg/kg b.w, 3 mg/kg b.w, 5 mg/kg b.w and 10 mg/kg b.w dosage respectively for 28 days. […] All the treatments were continued for 10 days. On day 11 all the mice were sacrificed and different parameters were studied.
Blood samples were collected from the retro-orbital venous plexus of mice for quantitative analysis of alanine aminotransferase (ALT), aspartate aminotransferase (AST), alkaline phosphatase (ALP), creatinine and blood urea nitrogen (BUN) in serum following kit protocol (Sigma Aldrich, USA). Optical densities were determined by using a spectrophotometer (Infinite® 200 PRO, TECAN, Switzerland).

[5] = system: CSC enriched spheres (CES) derived from HCT116 cells; experiment: Cellular ROS, NO and LPO level in CES; assay type: cell-based, human; details: 24 h, 26 µM Orientin, 13 µM 5FU, 14 µM Orientin + 7 µM 5FU
Experimental: Reactive oxygen species (ROS) level in the cells of treated and untreated CESs was measured by 2′,7′-dichlorofluorescein diacetate (DCFH-DA) standard protocol (Bhattacharjee et al. [2014]). The production of nitric oxide (NO) were estimated by the level of stable NO metabolites, viz., nitrate (NO3^–) and nitrite (NO2^–) ions by reaction with Griess reagent (Bryan and Grisham [2007]). […]

[6] = system: HCT116 cells; experiment: Annexin V/PI flow cytometry (apoptosis); assay type: cell-based, human; details: HCT116, 48 h, IC50 doses; untreated 7.9%
Experimental: Percentage of apoptotic cells were detected by Annexin V and propidium Iodide (PI) staining by flow cytometry analysis according to the protocols provided by manufacturer of the kit (Invitrogen, USA). In brief, cells were washed with PBS, suspended in binding buffer followed by incubation with Annexin V and PI. Then, the cells were analysed by using a flow cytometer (BD LSRFortessaTM X-20).

[7] = system: HUVEC; experiment: Sprout (tube) formation assay with conditioned medium of CES; assay type: cell-based, human; details: for sprout formation: numbers and length of tubes: HUVEC, 24 h with CM of treated CES
Experimental: HCT116 CRC cells were grown in ultra-low attachment plate in 3dGRO™ Spheroid Medium (Sigma-Aldrich, USA) for 7 days. Spheroids enriched with CSCs were considered as CSC enriched spheres (CESs) or commonly referred as tumorospheres. After 7 days, tumorospheres were subjected to different treatments for 24 h, as per experimental protocol. Media of tumorospheres of all the treatment groups were collected, centrifuged to remove the cell debris and suspended spheres, supernatants were collected and vacuum concentrated. These supernatants were referred as conditioned medium (CM) and were stored at − 20 °C until use.
Matrigel was thawed overnight and the plate was coated with Matrigel (BD Bioscience, USA) and incubated for 1 h for polymerization. HUVECs (1 × 10^4) were seeded onto the Matrigel coated plate. After 8 h, media were changed with CM of interest. After 24 h of treatment tube formation was visualized microscopically and photographs were captured (DM 1000, Leica, Germany). The tube numbers were quantified by counting the branches between two discrete endothelial cells and length of the tubes were measured using Image J software by drawing a line along each tube and measuring the length in micrometer.

In the case of O=c1[nH]cc(F)c(=O)[nH]1 [5FU, 5-Fluorouracil, reference compound], the “cell morphology by AFM” value [1] is reported as “cell shrinkage, distortion, nuclear condensation and fragmentation, membrane blebbing and morphological changes of cellular bodies”, the “mRNA level of stemness maintenance factors (OCT4, NANOG, SOX2)” value [2] is reported as “increased” and the tumor volume [3] is reported as “decrease in the tumor volume”. The tumor tissue histopathology [3] was “cell numbers were found to be reduced”, the “number of blood vessels in tumor tissue” value [3] was “increasing blood vessels number” and the “CD44+/CD133+ cells in tumor tissue” value [3] was “increased”. The “HIF1α and VEGFA expression in tumor” value [3] was “increase”, the “survival (Kaplan Meier)” value [3] was “increased life span” and the ALP [4] was 168.44 ± 4.09 U/ml. For the same compound, the ALT [4] was 121.70 ± 3.95 U/ml, the AST [4] was 219.16 ± 2.83 U/ml and the BUN [4] was 30.76 ± 0.46 mg/dL. For the same compound, the Creatinine [4] was 0.73 ± 0.023 mg/dL, the “ROS, NO and LPO production in tumorospheres” value [5] was “increased” and the “percentage of apoptotic cells” value [6] was 54.5%. For the same compound, the “sprout formation: numbers and length of tubes” value [7] was “instigated sprout formations by increasing the numbers and length of tubes”.

In the case of O=c1cc(-c2ccc(O)c(O)c2)oc2c([C@@H]3O[C@H](CO)[C@@H](O)[C@H](O)[C@H]3O)c(O)cc(O)c12 [Orientin], the “cell morphology by AFM” value [1] is reported as “cell shrinkage, distortion, nuclear condensation and fragmentation, membrane blebbing and morphological changes of cellular bodies”, the “mRNA level of stemness maintenance factors (OCT4, NANOG, SOX2)” value [2] is reported as “decreased” and the tumor volume [3] is reported as “decrease in the tumor volume”. The tumor tissue histopathology [3] was “lost their compactness”, the “number of blood vessels in tumor tissue” value [3] was “reduced” and the “CD44+/CD133+ cells in tumor tissue” value [3] was “reduction”. The “HIF1α and VEGFA expression in tumor” value [3] was “decreased”, the “survival (Kaplan Meier)” value [3] was “increased life span” and the ALP [4] was 94.23 ± 2.10 U/ml. It also gave an ALT [4] of 49.08 ± 1.99 U/ml, an AST [4] of 134.7 ± 2.00 U/ml and a BUN [4] of 21.48 ± 0.53 mg/dL. The Creatinine [4] was 0.49 ± 0.020 mg/dL, the “ROS, NO and LPO production in tumorospheres” value [5] was “decrease” and the “percentage of apoptotic cells” value [6] was 49.3%. The “number of sprouting and length of tubes, comparison with VEGFA neutralizing antibody” value ([7]; HUVEC with CM of treated CES, 5 µg/ml VEGFA neutralizing antibody, 26 µM Orientin) was “same level of inhibition” and the “sprout formation: numbers and length of tubes” value [7] was “remarkably reduced”.
